Assay results taken from PubChem BioAssay AID248 (DTP/NCI, 2004).
Toxic doses and inconclusive results are not listed. Cut-off read from the data, not from the text of the source: active = T/C of 150% or more; inactive = T/C below 125%.

System: L1210 leukemia ip in BDF1 mice, survival T/C
Test: NCI In Vivo Anticancer Drug Screen. Data for tumor model L1210 Leukemia (intraperitoneal) in B6D2F1 (BDF1) mice
Settings: endpoint: mean survival time, higher = longer survival
In short: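 Read-out is survival time, reported as the treated-group measurement over the vehicle-control measurement.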

[1] = dose: 50.0 mg/kg/injection, schedule: Q01DX001 (ip), vehicle: saline
[2] = dose: 100.0 mg/kg/injection, schedule: Q01DX001 (ip), vehicle: saline
[3] = dose: 200.0 mg/kg/injection, schedule: Q01DX001 (ip), vehicle: saline
[4] = dose: 400.0 mg/kg/injection, schedule: Q01DX001 (ip), vehicle: saline
[5] = dose: 100.0 mg/kg/injection, schedule: Q01DX009 (ip), vehicle: saline with Tween-80
[6] = dose: 200.0 mg/kg/injection, schedule: Q01DX009 (ip), vehicle: saline with Tween-80
[7] = dose: 100.0 mg/kg/injection, schedule: Q04DX003 (ip), vehicle: Klucel (hydroxypropylcellulose) (HPC)
[8] = dose: 200.0 mg/kg/injection, schedule: Q04DX003 (ip), vehicle: Klucel (hydroxypropylcellulose) (HPC)
[9] = dose: 400.0 mg/kg/injection, schedule: Q04DX003 (ip), vehicle: Klucel (hydroxypropylcellulose) (HPC)
[10] = dose: 100.0 mg/kg/injection, schedule: Q04DX003 (ip), vehicle: saline with Tween-80
[11] = dose: 200.0 mg/kg/injection, schedule: Q04DX003 (ip), vehicle: saline with Tween-80
[12] = dose: 400.0 mg/kg/injection, schedule: Q04DX003 (ip), vehicle: saline with Tween-80

Measured: T/C

N#Cc1cccc(C[P+](c2ccccc2)(c2ccccc2)c2ccccc2)c1
inactive: dose: 12.5 mg/kg/injection, schedule: Q01DX009 (ip), vehicle: Klucel (hydroxypropylcellulose) (HPC) 100 % of control | dose: 12.5 mg/kg/injection, schedule: Q04DX003 (ip), vehicle: Klucel (hydroxypropylcellulose) (HPC) 111 % of control | dose: 25.0 mg/kg/injection, schedule: Q01DX009 (ip), vehicle: Klucel (hydroxypropylcellulose) (HPC) 102 % of control | dose: 25.0 mg/kg/injection, schedule: Q04DX003 (ip), vehicle: Klucel (hydroxypropylcellulose) (HPC) 111 % of control | dose: 50.0 mg/kg/injection, schedule: Q04DX003 (ip), vehicle: Klucel (hydroxypropylcellulose) (HPC) 100 % of control

CCCCn1c(N)cc(=O)[nH]c1=S
inactive: [1] 100 % of control | [2] 93 % of control | [3] 106 % of control | [4] 100 % of control

O=C(CC1OC1c1ccccc1)c1ccccc1 (stereo not drawn)
inactive: dose: 50.0 mg/kg/injection, schedule: Q01DX001 (ip), vehicle: Klucel (hydroxypropylcellulose) (HPC) 110 % of control | dose: 100.0 mg/kg/injection, schedule: Q01DX001 (ip), vehicle: Klucel (hydroxypropylcellulose) (HPC) 100 % of control | dose: 100.0 mg/kg/injection, schedule: Q04DX003 (ip), vehicle: other 99 % of control | dose: 200.0 mg/kg/injection, schedule: Q01DX001 (ip), vehicle: Klucel (hydroxypropylcellulose) (HPC) 102 % of control | dose: 200.0 mg/kg/injection, schedule: Q04DX003 (ip), vehicle: other 94 % of control | dose: 400.0 mg/kg/injection, schedule: Q04DX003 (ip), vehicle: other 101 % of control

O=c1oc(-c2cccc([N+](=O)[O-])c2)nc2ccccc12
inactive: dose: 50.0 mg/kg/injection, schedule: Q01DX009 (ip), vehicle: saline with Tween-80 97 % of control | [5] 94 % of control | [6] 93 % of control

O=C1c2ccccc2C(=O)N1CC[P+](c1ccccc1)(c1ccccc1)c1ccccc1
inactive: dose: 1.56 mg/kg/injection, schedule: Q01DX009 (ip), vehicle: water 106 % of control | dose: 3.12 mg/kg/injection, schedule: Q01DX009 (ip), vehicle: water 107 % of control | dose: 6.25 mg/kg/injection, schedule: Q01DX009 (ip), vehicle: water 108 % of control | dose: 12.5 mg/kg/injection, schedule: Q01DX009 (ip), vehicle: water 110 % of control | dose: 25.0 mg/kg/injection, schedule: Q01DX009 (ip), vehicle: water 98 % of control

CC(/C=N/NC(N)=O)=N\NC(N)=O
inactive: dose: 15.0 mg/kg/injection, schedule: Q01DX Z (ip), vehicle: saline 107 % of control | dose: 30.0 mg/kg/injection, schedule: Q01DX Z (ip), vehicle: saline 107 % of control | dose: 60.0 mg/kg/injection, schedule: Q01DX Z (ip), vehicle: saline 89 % of control | dose: 60.0 mg/kg/injection, schedule: Q01DX Z (oral), vehicle: saline 91 % of control | dose: 120.0 mg/kg/injection, schedule: Q01DX Z (oral), vehicle: saline 89 % of control | dose: 240.0 mg/kg/injection, schedule: Q01DX Z (oral), vehicle: saline 91 % of control | dose: 480.0 mg/kg/injection, schedule: Q01DX Z (oral), vehicle: saline 91 % of control

Cc1ccc(C(=O)NS(=O)(=O)c2ccc(C)cc2)cc1
inactive: dose: 100.0 mg/kg/injection, schedule: Q01DX009 (ip), vehicle: Klucel (hydroxypropylcellulose) (HPC) 91 % of control | [7] 101 % of control | dose: 200.0 mg/kg/injection, schedule: Q01DX009 (ip), vehicle: Klucel (hydroxypropylcellulose) (HPC) 105 % of control | [8] 103 % of control | [9] 104 % of control

O=C1C2C(=C3CCCCC3)C=CC2C1(c1ccccc1)c1ccccc1 (stereo not drawn)
inactive: [7] 101 % of control | [8] 95 % of control | [9] 94 % of control

Nc1cc(NC(c2ccccc2)c2ccccc2)c([N+](=O)[O-])c(N)n1
inactive: dose: 100.0 mg/kg/injection, schedule: Q01DX001 (ip), vehicle: saline with Tween-80 98 % of control | dose: 200.0 mg/kg/injection, schedule: Q01DX001 (ip), vehicle: saline with Tween-80 98 % of control | dose: 400.0 mg/kg/injection, schedule: Q01DX001 (ip), vehicle: saline with Tween-80 93 % of control

N#Cc1ccc(C#N)c2ccccc12
inactive: [10] 96 % of control | [11] 98 % of control | [12] 96 % of control

Clc1ccc(C2NC(c3ccc(Cl)cc3)NC(c3ccc(Cl)cc3)N2)cc1 (stereo not drawn)
inactive: dose: 75.0 mg/kg/injection, schedule: Q01DX001 (ip), vehicle: saline 95 % of control | dose: 150.0 mg/kg/injection, schedule: Q01DX001 (ip), vehicle: saline 95 % of control | dose: 300.0 mg/kg/injection, schedule: Q01DX001 (ip), vehicle: saline 90 % of control

O=C(CCCC(=O)N/N=C/c1cccc(O)c1)N/N=C\c1cccc(O)c1
inactive: [1] 98 % of control | [2] 104 % of control | [3] 98 % of control | [4] 92 % of control

C=CC[Se]c1nc(N)nc2c1ncn2C1OC(CO)C(O)C1O (stereo not drawn)
inactive: dose: 12.5 mg/kg/injection, schedule: Q01DX005 (ip), vehicle: saline 104 % of control | dose: 25.0 mg/kg/injection, schedule: Q01DX005 (ip), vehicle: saline 100 % of control

CC(C)[CH2][Sn](=[O])[OH]
inactive: dose: 50.0 mg/kg/injection, schedule: Q01DX009 (ip), vehicle: saline 96 % of control | dose: 100.0 mg/kg/injection, schedule: Q01DX009 (ip), vehicle: saline 100 % of control | dose: 200.0 mg/kg/injection, schedule: Q01DX009 (ip), vehicle: saline 100 % of control

CC(CO)(CO)NC(=O)c1ccc([N+](=O)[O-])cc1
inactive: dose: 100.0 mg/kg/injection, schedule: Q01DX001 (ip), vehicle: carboxymethylcellulose (CMC) 94 % of control | dose: 200.0 mg/kg/injection, schedule: Q01DX001 (ip), vehicle: carboxymethylcellulose (CMC) 100 % of control | dose: 400.0 mg/kg/injection, schedule: Q01DX001 (ip), vehicle: carboxymethylcellulose (CMC) 94 % of control

CCOC(=O)Nc1ccccc1C
inactive: [7] 95 % of control | [8] 100 % of control | dose: 222.0 mg/kg/injection, schedule: Q01DX Z (ip), vehicle: methylcellulose (MC) 101 % of control | dose: 333.0 mg/kg/injection, schedule: Q01DX Z (ip), vehicle: methylcellulose (MC) 101 % of control | [9] 94 % of control

O=C1OCC/C1=C\c1ccc2c(c1)OCO2
inactive: [10] 105 % of control | [11] 101 % of control | [12] 90 % of control

O=C/C=C\c1ccccc1O
inactive: [2] 105 % of control | [3] 105 % of control

c1ccc(Nc2ccc3ccccc3c2)cc1
inactive: [5] 97 % of control | [10] 92 % of control | [6] 89 % of control | [11] 98 % of control | dose: 400.0 mg/kg/injection, schedule: Q01DX009 (ip), vehicle: saline with Tween-80 92 % of control | [12] 98 % of control

O=c1sc2ccccc2n1-c1ccccc1
inactive: [7] 96 % of control | [8] 93 % of control

CCCCCCCCc1cc2c(c3c1CCCC3)CCC1CCCCC21 (stereo not drawn)
inactive: [2] 104 % of control | [3] 98 % of control | [4] 101 % of control

CC(C)(C)OC(=O)NC(Cc1cncn1Cc1ccccc1)C(=O)NC(Cc1c[nH]c2ccccc12)C(=O)OCc1ccccc1 (stereo not drawn)
inactive: dose: 100.0 mg/kg/injection, schedule: Q04DX003 (ip), vehicle: saline 97 % of control | dose: 200.0 mg/kg/injection, schedule: Q04DX003 (ip), vehicle: saline 93 % of control | dose: 400.0 mg/kg/injection, schedule: Q04DX003 (ip), vehicle: saline 95 % of control
